We go through 18 compounds from patent US12509474B2, “Inhibitors of complement factors and uses thereof” (Annexon, Inc., priority 2020, dated 2025).

The assay concerns the target T1, human C1s protein (Homo sapiens, UniProt P09871).
T1 construct: A104
T1 sequence (P09871 16-688): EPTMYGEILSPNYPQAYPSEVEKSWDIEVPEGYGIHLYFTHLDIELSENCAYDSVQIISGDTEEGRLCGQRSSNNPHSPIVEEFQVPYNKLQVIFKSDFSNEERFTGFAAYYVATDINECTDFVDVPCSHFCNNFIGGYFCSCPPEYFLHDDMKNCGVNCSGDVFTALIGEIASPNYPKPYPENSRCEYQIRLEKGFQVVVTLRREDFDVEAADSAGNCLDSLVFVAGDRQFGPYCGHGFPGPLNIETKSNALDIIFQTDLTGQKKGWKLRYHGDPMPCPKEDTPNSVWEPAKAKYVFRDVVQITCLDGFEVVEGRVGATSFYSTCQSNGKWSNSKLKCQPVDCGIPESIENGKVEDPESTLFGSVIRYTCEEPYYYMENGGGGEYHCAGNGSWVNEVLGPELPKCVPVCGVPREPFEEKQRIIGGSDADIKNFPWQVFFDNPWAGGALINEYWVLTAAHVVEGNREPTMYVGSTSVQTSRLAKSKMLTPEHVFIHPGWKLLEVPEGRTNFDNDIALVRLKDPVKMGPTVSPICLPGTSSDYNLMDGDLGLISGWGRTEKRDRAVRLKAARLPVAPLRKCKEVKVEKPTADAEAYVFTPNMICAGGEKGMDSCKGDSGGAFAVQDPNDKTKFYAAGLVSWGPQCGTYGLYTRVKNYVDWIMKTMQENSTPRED
Description: C1s enzymatic assay (hydrolysis of YLGR-Rh110-dPro). It counts as biochemical. The note with it: substrate YLGR-Rh110-dPro 20 μM, 15 min pre-incubation, 60 min RT, fluorescence; for IC50: read-out: hC1s pIC50 (converted). The protocol:
Compound Testing in the C1s Enzymatic Assay
The enzyme cleaves the substrate with the release of Rh110 which is highly fluorescent. C1s inhibitors prevent the hydrolysis of the substrate thus resulting in a decrease of the signal.
On the day of the experiment 0.1 mg/mL BSA (Sigma, B4287) is added fresh to the buffer. The test item stock solutions are serially diluted 1:3 or 1:4 or 1:5 with DMSO, 11-point curves, in a 384-well compound plate. Nafamostat concentration curve is always included in the assay plate as a reference control.
The high controls are prepared dispensing in 0.25 μL DMSO in column 23, rows AH or AP and low controls with 0.25 μL of 0.1 M Nafamostat. […] The YLGR-Rh110-dPro substrate is prepared as 2× of the final assay concentration of 20 μM. 1/well of 2× enzyme solution is dispensed and pre-incubated for 15 min with the compounds. The enzymatic reaction is then started with 5 μL/well of the 2× substrate solution.

Structures can show the parent of a compound that is named as a salt.

Regarding “7-(1-hydroxy-3-prop-2-enyl-3,4-dihydro-2,1-benzoxazonin-7-yl)cinnolin-4-amine [Example 148]”, the “hC1s pIC50” value was determined as 8.64.
For “7-(3-cyclopropyl-1-hydroxy-3,4-dihydro-2,1-benzoxazonin-7-yl)cinnolin-4-amine [Example 147]”, the “hC1s pIC50” value came to 8.38.
`Cc1nnc(N)c2ccc(-c3ccc4c(c3)B(O)OC(C)C4)cc12` (single isomer, unassigned) [Example 72, 6-(1-hydroxy-3-methyl-3,4-dihydro-2,1-benzoxazonin-7-yl)-4-methylphthalazin-1-amine]: the IC50 is 1.02 nM.
Still for that read-out and setting: as for `Cc1nnc(N)c2ccc(-c3ccc4c(c3)B(O)OC(C)C4)cc12` (single isomer, unassigned) [Example 73, 6-(1-hydroxy-3-methyl-3,4-dihydro-2,1-benzoxazonin-7-yl)-4-methylphthalazin-1-amine], the figure is 0.912 nM; as for `CC1Cc2ccc(-c3ccc4c(N)cnnc4c3)cc2B(O)O1` (single isomer, unassigned) [Example 94], 1.91 nM; as for `CC1Cc2ccc(-c3ccc4c(N)cnnc4c3)cc2B(O)O1` (single isomer, unassigned) [Example 95], 3.55 nM.
On the same count and under the same terms, as for `CC(C)C1Cc2ccc(-c3ccc4c(N)cnnc4c3)cc2B(O)O1` (single isomer, unassigned) [Example 152], the figure is 3.09 nM.
On to `CC(C)C1Cc2ccc(-c3ccc4c(N)cnnc4c3)cc2B(O)O1` (single isomer, unassigned) [Example 153], for which the IC50 is 1.66 nM.
On the same count and under the same terms, then `Nc1cnnc2cc(-c3cc(B(O)O)ccc3OCC3CNC(=O)C3)ccc12` (single isomer, unassigned) [Example 154, [3-(4-aminocinnolin-7-yl)-4-[(5-oxopyrrolidin-3-yl)methoxy]phenyl]boronic Acid], with 1.78 nM.
On the same count and under the same terms, then `Nc1cnnc2cc(-c3cc(B(O)O)ccc3OCC3CNC(=O)C3)ccc12` (single isomer, unassigned) [Example 155, [3-(4-aminocinnolin-7-yl)-4-[(5-oxopyrrolidin-3-yl)methoxy]phenyl]boronic Acid], with 3.89 nM; and `Cc1nnc(N)c2ccc(-c3cc(B(O)O)ccc3NC(=O)C3CC(F)(F)CN3)cc12` (stereo in doubt) [Example 81, [3-(1-amino-4-methylphthalazin-6-yl)-4-[[(2S)-4,4-difluoropyrrolidine-2-carbonyl]amino]phenyl]boronic Acid], with 4.57 nM.
On the same count and under the same terms, as for `Nc1nncc2cc(-c3cccc(B(O)O)c3)ccc12` [Example 1, [3-(1-aminophthalazine-6-yl)phenyl]boronic Acid], the figure is 1.17 nM.
As to `COc1ccc(B(O)O)cc1-c1ccc2c(N)nncc2c1` [Example 2, [3-(1-aminophthalazin-6-yl)-4-methoxyphenyl]boronic Acid Formic Acid Salt], the IC50 was 6.31 nM.
Still for that read-out and setting: as for `Cc1nnc(N)c2ccc(-c3cccc(B(O)O)c3)cc12` [Example 4, [3-(1-amino-4-methylphthalazin-6-yl)phenyl]boronic Acid], the figure is 1.51 nM; as for `COc1ccc(B(O)O)cc1-c1ccc2c(N)cnnc2c1` [Example 5, [3-(4-aminocinnolin-7-yl)-4-methoxyphenyl]boronic Acid], 0.589 nM.
The same measure, in the same setting: as for `COc1ccc(B(O)O)cc1-c1ccc2c(N)nnc(C)c2c1` [Example 7, [3-(1-amino-4-methylphthalazin-6-yl)-4-methoxyphenyl]boronic Acid Formic Acid Salt], the figure is 0.891 nM; as for `COCCOCCOCCOCCOCCOCCOc1ccc(B(O)O)cc1-c1ccc2c(N)cnnc2c1` [Example 8, [3-(4-aminocinnolin-7-yl)-4-[2-[2-[2-[2-[2-(2-methoxyethoxy)ethoxy]ethoxy]ethoxy]ethoxy]ethoxy]phenyl]boronic Acid], 3.09 nM; as for `CC(C)c1nnc(N)c2ccc(-c3cccc(B(O)O)c3)cc12` [Example 9, [3-(1-amino-4-propan-2-ylphthalazin-6-yl)phenyl]boronic Acid Hydrochloric Acid Salt], 513 nM.
